Values after ≈ are worked out from the molar mass of the structure shown.
test system: Allernaria tenuis; assay: MIC against fungi (agar), Alternaria tenuis; assay type: cell-based; conditions: Alternaria alternata, 336 h, beer wort/peptone agar, 2 weeks at 28° C., 60 to 70% relative humidity
Protocol: (§1) Active compounds, according to the invention, are added in concentrations of 0.1 mg/l to 5000 mg/l, to an agar prepared from beer wort and peptone. The MIC is determined after the agar has been stored for 2 weeks at 28° C. and 60 to 70% relative atmospheric humidity. MlC is the lowest concentration of active compound at which the species of microbe used undergoes no growth at all; it is shown in the table below.

Row | MIC | Structure (SMILES)
1 | 150 µg/mL (≈ 427 µM) | FC(F)(F)Oc1ccc2cnn(SC(Cl)(Cl)Cl)c2c1 [Example 1, 6-Trifluoromethoxy-1-trichloromethylsulphenylindazole]
2 | 75 µg/mL (≈ 224 µM) | FC(F)(F)Oc1ccc2cnn(SC(F)(Cl)Cl)c2c1 [Example 2, 6-Trifluoromethoxy-1-dichlorofluoromethylsulphenylindazole]
3 | 20 µg/mL (≈ 59.7 µM) | FC(F)(F)Oc1ccc2c(cnn2SC(F)(Cl)Cl)c1 [Example 5]
4 | 200 µg/mL (≈ 541 µM) | FC(F)(F)Oc1ccc2c(cnn2SC(F)(Cl)Cl)c1Cl [Example 12]
5 | 15 µg/mL (≈ 53 µM) | Cc1cc(F)cc2c1cnn2SC(F)(Cl)Cl [Example 19]

test system: Aspergillus niger; assay: MIC against fungi (agar), Aspergillus niger; assay type: cell-based; conditions: 336 h, beer wort/peptone agar, 2 weeks at 28° C., 60 to 70% relative humidity
Protocol: as §1

Row | MIC | Structure (SMILES)
6 | 500 µg/mL (≈ 1860 µM) | Fc1cccc2c1cnn2SC(F)(Cl)Cl [1-Dichlorofluoromethylsulphenyl-4-fluoroindazole, reference compound]
7 | 20 µg/mL (≈ 56.9 µM) | FC(F)(F)Oc1ccc2cnn(SC(Cl)(Cl)Cl)c2c1 [Example 1, 6-Trifluoromethoxy-1-trichloromethylsulphenylindazole]
8 | 20 µg/mL (≈ 59.7 µM) | FC(F)(F)Oc1ccc2cnn(SC(F)(Cl)Cl)c2c1 [Example 2, 6-Trifluoromethoxy-1-dichlorofluoromethylsulphenylindazole]
9 | 150 µg/mL (≈ 413 µM) | FC1Oc2cc3c(cnn3SC(F)(Cl)Cl)cc2OC1(F)F (centres unmarked) [Example 4]
10 | 20 µg/mL (≈ 59.7 µM) | FC(F)(F)Oc1ccc2c(cnn2SC(F)(Cl)Cl)c1 [Example 5]
11 | 500 µg/mL (≈ 1360 µM) | Cc1cc(C(F)(F)F)c2cnn(SC(F)(Cl)Cl)c2c1Cl [Example 8]
12 | 50 µg/mL (≈ 135 µM) | FC(F)(F)Oc1ccc2c(cnn2SC(F)(Cl)Cl)c1Cl [Example 12]
13 | 50 µg/mL (≈ 144 µM) | Cc1cc2cnn(SC(F)(Cl)Cl)c2c(C)c1C(F)(F)F [Example 15]
14 | < 20 µg/mL | FC(F)(F)Sc1ccc2cnn(SC(F)(Cl)Cl)c2c1 [Example 16]
15 | 500 µg/mL (≈ 1290 µM) | FC(Cl)(Cl)Sn1ncc2c(Cl)c(Cl)c(C(F)(F)F)cc21 [Example 17]
16 | < 20 µg/mL | FC(F)(F)Sc1ccc2c(cnn2SC(F)(Cl)Cl)c1 [Example 18]
17 | 10 µg/mL (≈ 35.3 µM) | Cc1cc(F)cc2c1cnn2SC(F)(Cl)Cl [Example 19]

test system: Aureobasidium pullulans; assay: MIC against fungi (agar), Aureobasidium pullulans; assay type: cell-based; conditions: 336 h, beer wort/peptone agar, 2 weeks at 28° C., 60 to 70% relative humidity
Protocol: as §1

Row | MIC | Structure (SMILES)
18 | 350 µg/mL (≈ 996 µM) | FC(F)(F)Oc1ccc2cnn(SC(Cl)(Cl)Cl)c2c1 [Example 1, 6-Trifluoromethoxy-1-trichloromethylsulphenylindazole]
19 | 150 µg/mL (≈ 448 µM) | FC(F)(F)Oc1ccc2cnn(SC(F)(Cl)Cl)c2c1 [Example 2, 6-Trifluoromethoxy-1-dichlorofluoromethylsulphenylindazole]
20 | 20 µg/mL (≈ 59.7 µM) | FC(F)(F)Oc1ccc2c(cnn2SC(F)(Cl)Cl)c1 [Example 5]
21 | 500 µg/mL (≈ 1350 µM) | FC(F)(F)Oc1ccc2c(cnn2SC(F)(Cl)Cl)c1Cl [Example 12]
22 | 50 µg/mL (≈ 177 µM) | Cc1cc(F)cc2c1cnn2SC(F)(Cl)Cl [Example 19]

test system: Chaelomium globosum; assay: MIC against fungi (agar), Chaetomium globosum; assay type: cell-based; conditions: 336 h, beer wort/peptone agar, 2 weeks at 28° C., 60 to 70% relative humidity
Protocol: as §1

Row | MIC | Structure (SMILES)
23 | 200 µg/mL (≈ 743 µM) | Fc1cccc2c1cnn2SC(F)(Cl)Cl [1-Dichlorofluoromethylsulphenyl-4-fluoroindazole, reference compound]
24 | 75 µg/mL (≈ 213 µM) | FC(F)(F)Oc1ccc2cnn(SC(Cl)(Cl)Cl)c2c1 [Example 1, 6-Trifluoromethoxy-1-trichloromethylsulphenylindazole]
25 | 2 µg/mL (≈ 5.97 µM) | FC(F)(F)Oc1ccc2cnn(SC(F)(Cl)Cl)c2c1 [Example 2, 6-Trifluoromethoxy-1-dichlorofluoromethylsulphenylindazole]
26 | 100 µg/mL (≈ 275 µM) | FC1Oc2cc3c(cnn3SC(F)(Cl)Cl)cc2OC1(F)F (centres unmarked) [Example 4]
27 | 20 µg/mL (≈ 59.7 µM) | FC(F)(F)Oc1ccc2c(cnn2SC(F)(Cl)Cl)c1 [Example 5]
28 | < 20 µg/mL | Cc1cc(C(F)(F)F)c2cnn(SC(F)(Cl)Cl)c2c1Cl [Example 8]
29 | 20 µg/mL (≈ 54.1 µM) | FC(F)(F)Oc1ccc2c(cnn2SC(F)(Cl)Cl)c1Cl [Example 12]
30 | < 20 µg/mL | Cc1cc2cnn(SC(F)(Cl)Cl)c2c(C)c1C(F)(F)F [Example 15]
31 | < 20 µg/mL | FC(F)(F)Sc1ccc2cnn(SC(F)(Cl)Cl)c2c1 [Example 16]
32 | < 20 µg/mL | FC(Cl)(Cl)Sn1ncc2c(Cl)c(Cl)c(C(F)(F)F)cc21 [Example 17]
33 | < 20 µg/mL | FC(F)(F)Sc1ccc2c(cnn2SC(F)(Cl)Cl)c1 [Example 18]
34 | 10 µg/mL (≈ 35.3 µM) | Cc1cc(F)cc2c1cnn2SC(F)(Cl)Cl [Example 19]

test system: Cladosporium; assay: MIC against fungi (agar), Cladosporium; assay type: cell-based; conditions: 336 h, beer wort/peptone agar, 2 weeks at 28° C., 60 to 70% relative humidity
Protocol: as §1

Row | MIC | Structure (SMILES)
35 | 20 µg/mL (≈ 56.9 µM) | FC(F)(F)Oc1ccc2cnn(SC(Cl)(Cl)Cl)c2c1 [Example 1, 6-Trifluoromethoxy-1-trichloromethylsulphenylindazole]
36 | 20 µg/mL (≈ 59.7 µM) | FC(F)(F)Oc1ccc2cnn(SC(F)(Cl)Cl)c2c1 [Example 2, 6-Trifluoromethoxy-1-dichlorofluoromethylsulphenylindazole]
37 | 20 µg/mL (≈ 54.1 µM) | FC(F)(F)Oc1ccc2c(cnn2SC(F)(Cl)Cl)c1Cl [Example 12]
38 | 5 µg/mL (≈ 17.7 µM) | Cc1cc(F)cc2c1cnn2SC(F)(Cl)Cl [Example 19]

test system: Lentinus tigrinus; assay: MIC against fungi (agar), Lentinus tigrinus; assay type: cell-based; conditions: 336 h, beer wort/peptone agar, 2 weeks at 28° C., 60 to 70% relative humidity
Protocol: as §1

Row | MIC | Structure (SMILES)
39 | 75 µg/mL (≈ 213 µM) | FC(F)(F)Oc1ccc2cnn(SC(Cl)(Cl)Cl)c2c1 [Example 1, 6-Trifluoromethoxy-1-trichloromethylsulphenylindazole]
40 | 20 µg/mL (≈ 59.7 µM) | FC(F)(F)Oc1ccc2cnn(SC(F)(Cl)Cl)c2c1 [Example 2, 6-Trifluoromethoxy-1-dichlorofluoromethylsulphenylindazole]
41 | 0.1 µg/mL (≈ 0.298 µM) | FC(F)(F)Oc1ccc2c(cnn2SC(F)(Cl)Cl)c1 [Example 5]
42 | 7.5 µg/mL (≈ 20.3 µM) | FC(F)(F)Oc1ccc2c(cnn2SC(F)(Cl)Cl)c1Cl [Example 12]
43 | 0.5 µg/mL (≈ 1.77 µM) | Cc1cc(F)cc2c1cnn2SC(F)(Cl)Cl [Example 19]

test system: Penicillium glaucum; assay: MIC against fungi (agar), Penicillium glaucum; assay type: cell-based; conditions: 336 h, beer wort/peptone agar, 2 weeks at 28° C., 60 to 70% relative humidity
Protocol: as §1

Row | MIC | Structure (SMILES)
44 | 200 µg/mL (≈ 743 µM) | Fc1cccc2c1cnn2SC(F)(Cl)Cl [1-Dichlorofluoromethylsulphenyl-4-fluoroindazole, reference compound]
45 | 20 µg/mL (≈ 56.9 µM) | FC(F)(F)Oc1ccc2cnn(SC(Cl)(Cl)Cl)c2c1 [Example 1, 6-Trifluoromethoxy-1-trichloromethylsulphenylindazole]
46 | 2 µg/mL (≈ 5.97 µM) | FC(F)(F)Oc1ccc2cnn(SC(F)(Cl)Cl)c2c1 [Example 2, 6-Trifluoromethoxy-1-dichlorofluoromethylsulphenylindazole]
47 | 100 µg/mL (≈ 275 µM) | FC1Oc2cc3c(cnn3SC(F)(Cl)Cl)cc2OC1(F)F (centres unmarked) [Example 4]
48 | 20 µg/mL (≈ 59.7 µM) | FC(F)(F)Oc1ccc2c(cnn2SC(F)(Cl)Cl)c1 [Example 5]
49 | < 20 µg/mL | Cc1cc(C(F)(F)F)c2cnn(SC(F)(Cl)Cl)c2c1Cl [Example 8]
50 | 20 µg/mL (≈ 54.1 µM) | FC(F)(F)Oc1ccc2c(cnn2SC(F)(Cl)Cl)c1Cl [Example 12]
51 | < 20 µg/mL | Cc1cc2cnn(SC(F)(Cl)Cl)c2c(C)c1C(F)(F)F [Example 15]
52 | < 20 µg/mL | FC(F)(F)Sc1ccc2cnn(SC(F)(Cl)Cl)c2c1 [Example 16]
53 | < 20 µg/mL | FC(Cl)(Cl)Sn1ncc2c(Cl)c(Cl)c(C(F)(F)F)cc21 [Example 17]
54 | < 20 µg/mL | FC(F)(F)Sc1ccc2c(cnn2SC(F)(Cl)Cl)c1 [Example 18]
55 | 20 µg/mL (≈ 70.6 µM) | Cc1cc(F)cc2c1cnn2SC(F)(Cl)Cl [Example 19]

test system: Polyporus versicolor; assay: MIC against fungi (agar), Polyporus versicolor; assay type: cell-based; conditions: Trametes versicolor, 336 h, beer wort/peptone agar, 2 weeks at 28° C., 60 to 70% relative humidity
Protocol: as §1

Row | MIC | Structure (SMILES)
56 | 2 µg/mL (≈ 5.97 µM) | FC(F)(F)Oc1ccc2c(cnn2SC(F)(Cl)Cl)c1 [Example 5]

test system: Sclerophoma pityophila; assay: MIC against fungi (agar), Sclerophoma pityophila; assay type: cell-based; conditions: Sydowia polyspora, 336 h, beer wort/peptone agar, 2 weeks at 28° C., 60 to 70% relative humidity
Protocol: as §1

Row | MIC | Structure (SMILES)
57 | 75 µg/mL (≈ 213 µM) | FC(F)(F)Oc1ccc2cnn(SC(Cl)(Cl)Cl)c2c1 [Example 1, 6-Trifluoromethoxy-1-trichloromethylsulphenylindazole]
58 | 35 µg/mL (≈ 104 µM) | FC(F)(F)Oc1ccc2cnn(SC(F)(Cl)Cl)c2c1 [Example 2, 6-Trifluoromethoxy-1-dichlorofluoromethylsulphenylindazole]
59 | 0.75 µg/mL (≈ 2.24 µM) | FC(F)(F)Oc1ccc2c(cnn2SC(F)(Cl)Cl)c1 [Example 5]
60 | 200 µg/mL (≈ 541 µM) | FC(F)(F)Oc1ccc2c(cnn2SC(F)(Cl)Cl)c1Cl [Example 12]
61 | 15 µg/mL (≈ 53 µM) | Cc1cc(F)cc2c1cnn2SC(F)(Cl)Cl [Example 19]

test system: Trichoderma viride; assay: MIC against fungi (agar), Trichoderma viride; assay type: cell-based; conditions: 336 h, beer wort/peptone agar, 2 weeks at 28° C., 60 to 70% relative humidity
Protocol: as §1

Row | MIC | Structure (SMILES)
62 | 50 µg/mL (≈ 149 µM) | FC(F)(F)Oc1ccc2c(cnn2SC(F)(Cl)Cl)c1 [Example 5]
63 | 500 µg/mL (≈ 1770 µM) | Cc1cc(F)cc2c1cnn2SC(F)(Cl)Cl [Example 19]

test system: slime organisms; assay: Action against slime organisms (MIC); assay type: cell-based; conditions: 504 h; slime organisms approx. 10^6 microbes/ml, Allen's nutrient solution with 1% caprolactam, room temperature, 3 weeks
Protocol: Substances according to the invention are used in concentrations of 0.1 to 100 mg/l in each case, dissolved in a little acetone, in Allen's nutrient solution (Arch. Mikrobiol. 17, 34 to 53 (1952)) containing 0.2 g of ammonium chloride, 4.0 g of sodium nitrate, 1.0 g of dipotassium hydrogenphosphate, 0.2 g of calcium chloride, 2.05 g of magnesium sulphate and 0.02 g of iron chloride, together with 1% of caprolactam, in 4 l of sterile water. Shortly beforehand, the nutrient solution is infested with slime organisms (approx. 10^6 microbes/ml), isolated from the spinning water circulation used in the production of polyamide.

Row | MIC | Structure (SMILES)
64 | 5 to 10 µg/mL (≈ 14.9 to 29.8 µM) | FC(F)(F)Oc1ccc2c(cnn2SC(F)(Cl)Cl)c1 [Example 5]

test system: Drechslera graminea (syn. Helminthosporium gramineum); assay: Drechslera graminea test (barley)/seed treatment; assay type: in vivo; conditions: application rate 500 mg/kg of seed, approx. 3 weeks after sowing, undressed 23.4
Protocol: Drechslera graminea test (barley)/seed treatment (syn. Helminthosporium gramineum)
The active compounds are applied in the form of dry dressing agents. They are formulated by diluting the particular active compound with ground minerals to give a finely powdered mixture, which ensures uniform distribution on the surface of the seed.
The infested seed is dressed by shaking it for 3 minutes with the dressing agent in a closed glass jar.
Embedded in sieved, moist standard soil, the seed is exposed to a temperature of 4° C. for 10 days in closed Petri dishes in a refrigerator. This initiates the germination of the barley sand, if appropriate, also that of the fungus spores. The pre-germinated barley is then sown in 2 lots of 50 grains 3 cm deep in standard soil and is cultivated in seed boxes which are exposed to light for 15 hours a day in a greenhouse at a temperature of approx. 18° C.
The plants are evaluated for symptoms of stripe disease approx. 3 weeks after sowing.

Row | Structure (SMILES) | Diseased plants as % of all the emerged plants
65 | FC(F)(F)Oc1ccc2cnn(SC(F)(Cl)Cl)c2c1 [Example 2, 6-Trifluoromethoxy-1-dichlorofluoromethylsulphenylindazole] | 4.1%

— patent US4778511A, “Fluorine-containing N-sulphenylated indazoles for use as bactericides and fungicides” (Bayer Aktiengesellschaft, priority 1985, dated 1988)
